In assay [1] the test system is bri1-116, bri1-301 mutants. Nature of the assay: Phenotype rescue of BR perception (receptor) mutants. In kind it is in vivo, Arabidopsis thaliana. Particulars: for phenotype rescue of bri1-116 mutant: day 5 to day 11 on 1 μM BL or 30 μM ABRASIN; for rescue of dwarfed phenotype: light-grown, abrasin 50 μM or BL 1 μM. The protocol: FIG. 5: Effect of brassinolide (BL) and abrasin (I5) treatment on mutants. WT or mutant plants were grown under standard conditions on agar plates. After 3 days of germination, plants were transferred to agar plates containing abrasin at a concentration of 50 μM or BL at a concentration of 1 μM.
(§1) For further phenotypical analysis, all plants were grown on vertically oriented square plates (Greiner Labortechnik, Austria) with solid medium derived from standard Murashige and Skoog medium under the same conditions. For the hypocotyl-elongation assay, plants were grown in the dark at 22° C. under the same conditions.
(§2) Col-0, the null BR signaling bri1-116 (Friedrichsen et al., 2000) and BR biosynthetic cpd (Szekeres et al., 1996) mutants were subjected to phenotype rescue analysis by treatments with BL and ABRASIN. As a negative control, dimethylsulfoxide (DMSO) was used. Plants were germinated in vitro for 5 days on ½ MS containing DMSO medium and from day 6th to day 11th they were transferred on medium supplemented with BL (10 nM, 100 nM, 1000 nM), ABRASIN (5 μM, 10 μM, 30 μM) or DMSO. Cotyledons and leaves were collected for flowcytometric analysis at the 11th day (i.e. 6 days of treatments). Samples for β-glucuronidase (GUS) assay were taken on day 6th (i.e. 1 day treatments), 8th (i.e. 3 days treatments), 10th (i.e. 5 days treatments). Rescue of soil-grown mutants at different growth stages was checked by watering bri1-116 and cpd mutants with either BL or 2 ml 300 μM ABRASIN per day.

Assay [2] deals with BES1 protein in 35S:BES1:GFP plants. Nature of the assay: Western blot analysis of BES1 phosphorylation state. Format: in vivo, Arabidopsis thaliana. The protocol:
FIG. 8: A: Western Blot analysis of the BES1 protein in 35S:BES1:GFP plants treated with BL and abrasin (indicated as I5 throughout the figure) (A); MG132 with BL or abrasin (B); a time course with abrasin (C) and a concentration gradient with abrasin (D). B: Abrasin and BL induce similar transcriptional regulation of the BR pathway.
For protein extraction, six-day-old seedlings were grown under standard conditions as described earlier on solid medium. Plants were next soaked in liquid MS-medium supplemented with the indicated compounds (concentrations and time periods as indicated in figures). Subsequently, plants were frozen in liquid nitrogen, ground and homogenized in ice-cold homogenization buffer (25 mM Tris-HCl (pH 8), 5 mM EDTA, 1 mM β-Mercapto-ethanol, 15 mM MgCl—2, 85 mM NaCl, 0.1% Tween 20, 1 protease inhibitor tablet/50 ml, Complete (Roche diagnostics, Belgium)). The homogenate was centrifuged twice (5 min, 14.000 rpm, 4° C.) in an Eppendorf Centrifuge 5417. Loading buffer was added, the samples were heated for 10 min at 95° C. and centrifuged. The samples were separated on a 12% acrylamide gel or a 4-20% gradient pre-cast gel (Bio-Rad) and blotted on nitrocellulose membranes (Hybond-C super, GE-Biosciences, UK) in 190 mM glycine and 25 mM Tris-Hcl using a mini-blotting system (Bio-Rad, USA) for 1 h. Membranes were blocked overnight at 4° C. in phosphate buffer with 0.1% Tween 20 and 5% skim milk (BD Difco, USA). For immunodetection, anti-BES1 antibodies at 1:2000 dilution and anti-GFP antibodies at 1:1000 dilution were used as primary antibody. As secondary antibody, anti-rat and anti-rabbit were used at 1:10.000 dilution. The proteins were detected by chemiluminescence (Perkin-Elmer, USA).
(In general: In western blotting, separated proteins are transferred to a membrane and probed.)

A further assay has as its system bri1-116 and cpd mutants. Nature of the assay: Flowcytometric analysis of DNA content of cotyledons and leaves. Format: in vivo, Arabidopsis. Particulars: 6 days of treatments. The method, then: FIG. 16: Rescue of bri1-116 and cpd mutants grown on different concentrations of ABRASIN and BL. The plants were germinated on MS+DMSO medium till day 5 and afterwards transferred on MS supplemented with the respective concentration of ABRASIN and BL for 6 more days. Flowcytometric analysis of cotyledons and leaves was performed at the last day of treatments. (A.) Rescue of bri1-116 mutants by ABRASIN. Increasing the ABRASIN concentration promotes cell division activation. (B.) Rescue of cpd mutants by ABRASIN. Increasing the ABRASIN concentration promotes cell division activation. (C.) Rescue of cpd mutants by BL. Both cell division and endoreduplication take place in the BL rescue strategy. BL: brassinolide; BIK: abrasin.
as §2
Samples for flow cytometric analysis were collected and analyzed as described earlier (De Veylder et al., 2001)

Assay [3] relates to group I GSK-3 kinases (ASKs). Nature of the assay: ASK kinase assay with MBP as substrate, group I. In kind it is biochemical, Arabidopsis. Particulars: 10 μM abrasin. The protocol: Coomassie staining was used as a loading control. b, Autoradiography of kinase assays with nine ASKs with MBP as a substrate in the presence or absence of 10 μM abrasin. The second member of group IV, ASKκ, had no kinase activity and was not included in the analysis. c, Autoradiography of kinase assays with AtMPK4, AtMPK6 and MBP as a substrate (left) and with AtAUR1 kinase and histone H3 as a substrate (right) in the presence or absence of 10 μM abrasin.
For in vitro kinase assays, MBP, MBP-BES1, and MBP-bes1 (20 ng each) were incubated with GST-BIN2 or GST-BRI1 kinase (200 ng each) in 20 μl of kinase buffer (20 mM Tris [pH 7.5], 100 mM NaCl, and 12 mM MgCl2) and 10 μCi ^32P-γATP. After incubation at 37° C. for 40 min, the reactions were stopped by adding 20 μl of 2×SDS buffer and boiling at 94° C. for 5 min. Proteins were resolved by a PAGE gel and phosphorylation was detected by exposing the dried gel to X-ray film. […]
Besides BIN2, nine additional GSK-3 kinases (also designated ASKs for Arabidopsis SHAGGY-related kinases) divided into four subgroups (I-IV) have been identified in Arabidopsis (Jonak and Hirt, 2002; Yoo et al. 2006). To determine the specificity of abrasin, its effect on the kinase activity of all ASKs was analyzed with myelin basic protein (MBP) as a general substrate. […]

Assay [4] concerns cpd, det2-1, bri1-116 and bri1-301 mutants. Nature of the assay: Hypocotyl-elongation assay of dark-grown BR mutants. In kind it is in vivo, Arabidopsis thaliana. Particulars: grown in the dark, 50 μM abrasin. The protocol:
FIG. 6: Rescue of dark-grown BL mutants after treatment with 50 μM of abrasin (I5).
as §1

Bounds are passed on as bounds.

Take `CC(C)[C@H](C)[C@@H](O)[C@H](O)[C@@H](C)[C@H]1CC[C@H]2[C@@H]3COC(=O)[C@H]4C[C@H](O)[C@H](O)C[C@]4(C)[C@H]3CC[C@]12C` [BL, brassinolide, reference compound]: in assay [1], the “phenotype rescue of bri1-116 mutant” value is “bri1-116 was insensitive and therefore unaffected by BL”; the “rescue of dwarfed phenotype” value is “but not the bri1 receptor mutants”. In addition, the BES1 phosphorylation state entry in assay [2] (addition of BL or MG132) is reported as “induces more non-phosphorylated protein”. Also, the “DNA content distribution of leaves” value with bri1-116 and cpd mutants was “did not significantly changes the DNA content distribution”.

As to `O=C(O)CCC(=O)Nc1ccc(Br)cn1` [abrasin, 4-[(5-bromo-2-pyridinyl)amino]-4-oxobutanoic acid], the residual activity in assay [3] was 6-8%. Moreover, the “time after treatment at which phenotypic changes were observed” value in assay [1] (bri1-116 and cpd mutants, 30 μM ABRASIN) came out at 1 days. Also, the “concentration sufficient to rescue the mutant phenotypes” value in assay [1] (bri1-116 and cpd mutants, 6 days of treatments) turned out to be 10 µM. Moreover, in assay [1], the “phenotype rescue of bri1-116 mutant” value was “rescued the phenotypes of both bri1-116 and cpd mutants to the wild-type”; the “rescue of dwarfed phenotype” value is on record as “all mutant lines, including the bri1 receptor mutants, showed an elongated phenotype”. In assay [2] (abrasin 50 μM), the “total amount of BES1 protein” value is listed as “the total amount of BES1 protein is also reduced”. In addition, in assay [2] (abrasin 5 to 10 μM), the BES1 phosphorylation state result is recorded as “a shift towards non-phosphorylated BES1 is observed”. For the same compound, the “time to shift towards the non-phosphorylated BES1 protein” value in assay [2] (after addition to the medium) is not above 30 min. Also, in the assay on bri1-116 and cpd mutants, the “DNA content distribution of leaves” value was “significantly increased the 2C and 4C content and completely suppressed the 16C content”; the “DNA content of cotyledons” value is listed as “the values for cotyledons did not differ form the untreated controls”. The “hypocotyl length of dark-grown mutants” value in assay [4] is “all mutant lines had hypocotyls of normal length”.

The values are drawn from patent US8273775B2, “Non-steroidal brassinosteroid mimetic” (priority 2006, dated 2012).
